Values quoted from earlier work in patent US20100267624A1 (priority 2007, published 2010).
Structures can show the parent of a compound that is named as a salt.

CN[C@H](CC(C)C)C(=O)N[C@H]1C(=O)N[C@@H](CC(N)=O)C(=O)N[C@H]2C(=O)N[C@H]3C(=O)N[C@H](C(=O)N[C@H](C(=O)O)c4cc(O)cc(O)c4-c4cc3ccc4O)[C@H](O)c3ccc(c(Cl)c3)Oc3cc2cc(c3O[C@@H]2O[C@H](CO)[C@@H](O)[C@H](O)[C@H]2O[C@H]2C[C@](C)(N)[C@H](O)[C@H](C)O2)Oc2ccc(cc2Cl)[C@H]1O [Vancomycin Hydrochloride]
solubility in organic solvents (organic solvents): poorly soluble | solubility in water (water): very soluble
